Counter-ions that a name gives are not always drawn.
Columns and labels:
5-HT transporter = 5-HT transporter (Rattus norvegicus, UniProt P31652); test: Rat Brain 3H-Paroxetine Binding Assay (RB 5HT Transporter); conditions: rat frontal cortical membranes; 3H-paroxetine 0.1 nM, 60 min, 25° C.
Text: Rat Brain ^3H-Paroxetine Binding Assay (RB 5HT Transporter):
This assay was used to determine a compound's affinity of the 5-HT transporter.
All reactions were terminated by the addition of ice cold Tris buffer followed by rapid filtration using a Tom Tech filtration device to separate bound from free ^3H-paroxetine.

human 5-HT1A receptors = biological target: T1, human 5-HT1A receptors (Homo sapiens, UniProt P08908); test: displacement of [3H] 8-OH-DPAT from the 5-HT1A serotonin receptor; type: binding; conditions: CHO cells stably transfected with human 5-HT1A receptors
T1 construct: expressed in transfected cells; host or cells: CHO cells
T1 sequence (P08908 1-422): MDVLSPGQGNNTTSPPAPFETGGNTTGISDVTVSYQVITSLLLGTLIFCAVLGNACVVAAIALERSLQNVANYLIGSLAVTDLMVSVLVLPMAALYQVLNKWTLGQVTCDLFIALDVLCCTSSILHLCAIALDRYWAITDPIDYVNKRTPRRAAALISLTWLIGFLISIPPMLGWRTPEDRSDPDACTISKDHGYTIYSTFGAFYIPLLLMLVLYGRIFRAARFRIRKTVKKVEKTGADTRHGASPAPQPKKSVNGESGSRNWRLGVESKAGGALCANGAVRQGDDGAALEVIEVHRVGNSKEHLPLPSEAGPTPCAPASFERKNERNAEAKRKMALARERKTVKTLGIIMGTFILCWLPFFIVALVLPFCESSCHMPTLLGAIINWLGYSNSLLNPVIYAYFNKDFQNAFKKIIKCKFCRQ

5-HT transporter, sequence (P31652 whole entry): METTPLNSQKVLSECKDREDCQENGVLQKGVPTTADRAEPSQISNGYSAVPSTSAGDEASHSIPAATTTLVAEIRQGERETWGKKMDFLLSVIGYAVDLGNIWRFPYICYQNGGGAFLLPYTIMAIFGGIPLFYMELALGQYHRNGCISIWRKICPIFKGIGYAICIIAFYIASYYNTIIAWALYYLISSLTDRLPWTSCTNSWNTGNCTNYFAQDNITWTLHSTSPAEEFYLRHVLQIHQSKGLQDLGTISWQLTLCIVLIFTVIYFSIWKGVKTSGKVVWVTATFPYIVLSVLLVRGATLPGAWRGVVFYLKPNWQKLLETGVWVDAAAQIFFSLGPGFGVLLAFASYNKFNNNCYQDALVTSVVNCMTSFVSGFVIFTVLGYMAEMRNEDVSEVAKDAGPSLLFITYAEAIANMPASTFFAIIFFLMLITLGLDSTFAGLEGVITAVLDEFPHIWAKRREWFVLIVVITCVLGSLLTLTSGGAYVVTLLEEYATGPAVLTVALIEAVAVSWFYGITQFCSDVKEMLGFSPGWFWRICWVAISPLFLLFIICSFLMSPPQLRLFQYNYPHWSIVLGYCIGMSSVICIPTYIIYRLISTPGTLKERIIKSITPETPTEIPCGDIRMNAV

Row | SMILES | melting point [°C] | Ki (5-HT transporter) [nM] | Ki (human 5-HT1A receptors) [nM]
1 | COc1cccc2c1occ2[C@H]1CC[C@@H](N2CCN(c3ccc(F)c4cccnc34)CC2)CC1 [Compound 57, 5-fluoro-8-{4-[4-cis(7-methoxy-1-benzofuran-3-yl)cyclohexyl]-1-piperazinyl}quinoline] | 143 to 146 | 163 | 0.4
2 | COc1cc(N2CCN([C@H]3CC[C@H](c4csc5ccccc54)CC3)CC2)c2ncccc2c1 [Compound 46, 8-{4-[4-trans (1-benzothien-3-yl)cyclohexyl]-1-piperazinyl}-6-methoxyquinoline] | 166 to 168 | 21 | 126
3 | Fc1cc(N2CCN(C3CCC(c4cc5ccccc5o4)CC3)CC2)c2ncccc2c1 (centres unmarked) [Compound 69, 8-[4-(4-benzofuran-2-yl-yclohexyl)-piperazin-1-yl]-6-fluoro-quinoline] | 91 to 93 | 106 | 16.3
4 | Fc1cc(N2CCN(CCc3coc4ccc(F)cc34)CC2)c2ncccc2c1 (as salt: HCl) [Compound 17, 8-{4-[2-(5-fluoro-1-benzofuran-3-yl)ethyl]-1-piperazinyl}-6-fluoro-quinoline] | 55 | – | –
5 | Fc1ccc(N2CCN([C@H]3CC[C@H](c4coc5ccccc54)CC3)CC2)c2ncccc12 [Compound 54, 8-{4-[4-trans(1-benzofuran-3-yl)cyclohexyl]-1-piperazinyl}-5-fluoroquinoline] | 162 to 164 | 38 | 25.1
6 | COc1ccc2occ([C@H]3CC[C@@H](N4CCN(c5cc(F)cc6cccnc56)CC4)CC3)c2c1 [Compound 67, 6-fluoro-8-{4-[4-cis(5-methoxy-1-benzofuran-3-yl)cyclohexyl]piperazin-1-yl}quinoline] | 153 to 160 | 146 | 14.4
7 | Fc1cc(N2CCN([C@H]3CC[C@H](c4csc5ccc(F)cc54)CC3)CC2)c2ncccc2c1 [Compound 48, 6-fluoro-8-{4-[4-trans(5-fluoro-1-benzothien-3-yl)cyclohexyl]piperazin-1-yl}quinoline] | 143 to 144 | 155 | 0.28
8 | COc1cccc2c1occ2[C@H]1CC[C@@H](N2CCN(c3cccc4cccnc34)CC2)CC1 [Compound 61, 8-{4-[4-cis(7-methoxy-1-benzofuran-3-yl)cyclohexyl]-1-piperazinyl}quinoline] | 66 to 67 | 27 | 41.4
9 | Fc1ccc2scc([C@H]3CC[C@@H](N4CCN(c5ccc(Cl)c6cccnc56)CC4)CC3)c2c1 [Compound 51, 5-chloro-8-{4-[4-cis(5-fluoro-1-benzothien-3-yl)cyclohexyl]piperazin-1-yl}quinoline] | 192 to 197 | 133 | 4.14
10 | COc1ccc2occ(CCN3CCN(c4cc(Cl)cc5cccnc45)CC3)c2c1 [Compound 22, 8-{4-[2-(5-methoxy-1-benzofuran-3-yl)ethyl]-1-piperazinyl}-6-chloro-quinoline] | 72 | 2 | 2.69
11 | Clc1cc(N2CCN([C@H]3CC[C@@H](c4csc5ccccc54)CC3)CC2)c2ncccc2c1 [Compound 41, 8-{4-[4-cis-(1-benzothien-3-yl)cyclohexyl]-1-piperazinyl}-6-chloroquinoline] | 164 to 165 | 65 | 2.25
12 | COc1cc(N2CCN(CCc3coc4ccc(F)cc34)CC2)c2ncccc2c1 (as salt: HCl) [Compound 16, 8-{4-[2-(5-fluoro-1-benzofuran-3-yl)ethyl]-1-piperazinyl}-6-methoxy-quinoline] | 80 | – | –
13 | COc1cccc2c(C(C)CN3CCN(c4cccc5cccnc45)CC3)coc12 (centres unmarked) (as salt: HCl) [Compound 31, 8-{4-[2-(7-methoxy-1-benzofuran-3-yl)propyl]-1-piperazinyl}quinoline] | 192 | – | –
14 | Fc1ccc2occ(CCN3CCN(c4cccc5cccnc45)CC3)c2c1 [Compound 15, 8-{4-[2-(5-fluoro-1-benzofuran-3-yl)ethyl]-1-piperazinyl}-quinoline] | – | 17 | 0.37
15 | COc1cc(N2CCN(C(C)Cc3coc4c(OC)cccc34)CC2)c2ncccc2c1 (centres unmarked) [Compound 36, 6-methoxy-8-{4-[2-(7-methoxy-1-benzofuran-3-yl)-1-methylethyl)piperazin-1-yl]quinoline] | – | 4.16 | 0.23
16 | COc1cccc2c(C(C)CN3CCN(c4cc(Cl)cc5cccnc45)CC3)coc12 (centres unmarked) [Compound 33, 8-{4-[2-(7-methoxy-1-benzofuran-3-yl)propyl]-1-piperazinyl}-6-chloro-quinoline] | – | 58 | 8.19
17 | Clc1ccc2c(CCN3CCN(c4cccc5cccnc45)CC3)coc2c1 [Compound 5, 8-{4-[2-(6-chloro-1-benzofuran-3-yl)ethyl]-1-piperazinyl}-quinoline] | – | 31 | 0.73

Row | SMILES | melting point [°C] | Ki (5-HT transporter) [nM] | Ki (human 5-HT1A receptors) [nM]
18 | COc1cccc2c(C(C)CN3CCN(c4cc(Cl)cc5cccnc45)CC3)coc12 (centres unmarked) (as salt: HCl) [Compound 33, 8-{4-[2-(7-methoxy-1-benzofuran-3-yl)propyl]-1-piperazinyl}-6-chloro-quinoline] | 55 to 58 | – | –
19 | COc1ccc2occ([C@H]3CC[C@H](N4CCN(c5ccc(Cl)c6cccnc56)CC4)CC3)c2c1 [Compound 66, 5-chloro-8-{4-[4-trans(5-methoxy-1-benzofuran-3-yl)cyclohexyl]piperazin-1-yl}quinoline] | – | 89 | 1.99
20 | COc1cccc2c(CCN3CCN(c4cc(Cl)cc5cccnc45)CC3)coc12 (as salt: HCl) [Compound 20, 8-{4-[2-(7-methoxy-1-benzofuran-3-yl)ethyl]-1-piperazinyl}-6-chloro-quinoline] | 248 | – | –
21 | Cc1cc(N2CCN(CCc3coc4cc(Cl)ccc34)CC2)c2ncccc2c1 [Compound 8, 8-{4-[2-(6-chloro-1-benzofuran-3-yl)ethyl]-1-piperazinyl}-6-methyl-quinoline] | – | 403 | 36.7
22 | COc1ccc2occ(CCN3CCN(c4cc(F)cc5cccnc45)CC3)c2c1 [Compound 26, 8-{4-[2-(5-methoxy-1-benzofuran-3-yl)ethyl]-1-piperazinyl}-6-fluoro-quinoline] | – | 16.5 | 14.4
23 | Fc1ccc2scc([C@H]3CC[C@H](N4CCN(c5ccc(Cl)c6cccnc56)CC4)CC3)c2c1 [Compound 52, 5-chloro-8-{4-[4-trans(5-fluoro-1-benzothien-3-yl)cyclohexyl]piperazin-1-yl}quinoline] | 195 to 197 | 48 | –
24 | COc1cccc2c1occ2[C@H]1CC[C@H](N2CCN(c3ccc(F)c4cccnc34)CC2)CC1 [Compound 58, 5-fluoro-8-{4-[4-trans(7-methoxy-1-benzofuran-3-yl)cyclohexyl]-1-piperazinyl}quinoline] | – | 34 | 21.1
25 | CC(CN1CCN(c2cc(F)cc3cccnc23)CC1)c1coc2ccccc12 (centres unmarked) [Compound 29, 8-{4-[2-(1-benzofuran-3-yl)propyl]-1-piperazinyl}-6-fluoro-quinoline] | – | 68 | 112
26 | COc1cccc2c(C(C)CN3CCN(c4cc(C)cc5cccnc45)CC3)coc12 (centres unmarked) [Compound 34, 8-{4-[2-(7-methoxy-1-benzofuran-3-yl)propyl]-1-piperazinyl}-6-methyl-quinoline] | – | 35 | 9.13
27 | CC(CN1CCN(c2cc(Cl)cc3cccnc23)CC1)c1coc2ccccc12 (centres unmarked) [Compound 28, 8-{4-[2-(1-benzofuran-3-yl)propyl]-1-piperazinyl}-6-chloro-quinoline] | – | 73 | 110
28 | COc1cccc2c1occ2[C@H]1CC[C@@H](N2CCN(c3ccc(Cl)c4cccnc34)CC2)CC1 [Compound 63, 5-chloro-8-{4-[4-cis(7-methoxy-1-benzofuran-3-yl)cyclohexyl]piperazin-1-yl}quinoline] | – | 87 | 0.92
29 | COc1cccc2c(C(C)CN3CCN(c4cc(C)cc5cccnc45)CC3)coc12 (centres unmarked) [Compound 32, 8-{4-[2-(7-methoxy-1-benzofuran-3-yl)propyl]-1-piperazinyl}-6-methyl-quinoline] | – | 35 | 2.16
30 | COc1cc(N2CCN([C@H]3CC[C@@H](c4csc5ccc(F)cc54)CC3)CC2)c2ncccc2c1 [Compound 49, 6-methoxy-8-{4-[4-cis(5-fluoro-1-benzothien-3-yl)cyclohexyl]piperazin-1-yl}quinoline] | – | 92 | 1.37
31 | COc1cc(N2CCN(CCc3coc4ccc(F)cc34)CC2)c2ncccc2c1 [Compound 16, 8-{4-[2-(5-fluoro-1-benzofuran-3-yl)ethyl]-1-piperazinyl}-6-methoxy-quinoline] | – | 62 | 8.05
32 | COc1cc(N2CCN([C@H]3CC[C@H](c4csc5ccc(F)cc54)CC3)CC2)c2ncccc2c1 [Compound 50, 6-methoxy-8-{4-[4-trans(5-fluoro-1-benzothien-3-yl)cyclohexyl]piperazin-1-yl}quinoline] | – | 10 | 25.9
33 | COc1cc(N2CCN([C@H]3CC[C@H](c4cc5ccccc5s4)CC3)CC2)c2ncccc2c1 [Compound 71] | 193 to 194 | – | 162

— patent US7276603B2, “Benzofuranyl-and benzothienyl-piperazinyl quinolines and methods of their use” (Wyeth, priority 2003, dated 2007)
